# In patent publication US20100233131A1 (PUSAN NATIONAL UNIVERSITY INDUSTRY-UNIVERSITY COOP, priority 2008, published 2010):
# How the values were obtained:
# Type in all cases: cell-based, human
# ATSCs [1] = assay: Colony forming unit (CFU) assay; conditions: 5 ng/ml selenium 3 days, colonies counted after 15 days, vs control ATSCs
# Procedure: Also, the proliferation efficiency of colony forming units (CFU) in the selenium-treated cells was evaluated. […] First, the ATSCs were seeded in 10 cm dishes at a density of 5×10^5 and cultured in a 2% FBS-containing α-MEM medium for 8 hours at 37° C. in a CO2 incubator. […] After 15 days, the cells were fixed with 4% paraformaldehyde (PFA) for 30 minutes at room temperature and stained with 0.1% toluidine blue dissolved in 1% PFA. The proliferation efficiency of the CFU was evaluated via visual colony counts.
# ATSCs [2] = assay: Telomerase activity of selenium-treated ATSCs; conditions: 5 ng/ml selenium for 3 days
# From the text: An increase in telomerase activity is a characteristic of a stem cell, and a decrease in telomerase activity indicates differentiation of the cells.
# ATSCs [3] = assay: Prolonged culture / proliferation lifespan
# From the text: During prolonged culture periods, the population of control ATSCs underwent a progressive reduction in proliferation potential. The cells finally underwent senescence after 21 to 23 passages (90 to 100 days in culture). At the end of the proliferation lifespan, the cells were flattered and larger in morphology in a monolayer similar to that described for senescent fibroblasts. […] The rate of proliferation of selenium-treated ATSCs resembled that of the control ATSCs.
# ATSCs [4] = assay: Molecular marker expression by real time RT-PCR and Western blot
# From the text: The expression of molecular markers in both the control ATSCs and the selenium-treated cells was verified via real time RT-PCR and Western blot analysis.
# ATSCs [5] = assay: Western blot of proliferation-related signaling proteins; conditions: time-dependent
# ATSCs [6] = assay: ROS generation (DCF fluorescence)
# ATSCs [7] = assay: Oligonucleotide microarray analysis of gene expression; conditions: vs control ATSCs
# Procedure: To confirm the pattern of gene expression, oligonucleotide microarray analysis was performed.
# [8] = system: Rex1, Nanog and Oct4 promoter regions; assay: Bisulfite sequencing of CpG methylation on stemness gene promoter regions
# Procedure: Also, a bisullipide sequencing analysis was performed in order to establish 5′-3′ CpG methylation profiles across a proximal promoter, a proximal enhancer and an early transcription start site (TSS) of each gene.
# Genomic DNA of ATSCs was purified by phenol/chloroform/isoamylalcohol extraction, and chloroform extraction once, and then was precipitated with ethanol. The DNA was dissolved in distilled water. Bisullipide conversion was performed using EZ DNA Methylation-Gold Kit (Zymo Research, USA), as described by a manufacturer. That is, unmethylated cytosines on the DNA were converted into uracils via the heat-denaturation of DNA with specifically designed CT conversion reagent. The DNA was then desulphonated and subsequently cleaned and eluted. The bisulfite-modified DNA was then immediately used for PCR or stored at −20° C. or below. The converted DNA was amplified via PCR using primers designed with MethPrimer (http://www.urogene.org/methprimer). The PRC was conducted in a MyGenie 96 Gradient Thermal Block (Bioneer, Daejeon, South Korea) according to the following protocol, including 95° C. for 15 minutes, 40 cycles of 95° C. for 20 seconds, 43 to 58° C. for 40 seconds, and 72° C. for 30 seconds, elongation at 72° C. for 10 minutes and soaking at 4° C. After electrophoresis on 1.5% agarose gel, the remaining PCR products were cloned into bacteria (DH5α) by the pGEM T-Easy Vector System I (Promega, Madison, Wis., USA). The DNA extracted from bacterial clones were analyzed via sequencing with M13 reverse primers using the ABI 3730XL capillary DNA sequencer (Applied Biosystems, Foster City, Calif., USA), and represented as rows of circles, each circle denoting the methylation status of CpG.
# ATSCs [9] = assay: Cell scraped wound model assay
# Procedure: Cells were seeded into 60 mm culture dishes, and a straight line was lightly carved across the center, outer and bottom surface of each dish with a scalpel. The ATSCs were incubated overnight in a serum-free medium, scraped from one side of the marked line, and washed three times with a medium to remove loose or dead cells. […] The control dish was also scratched in the same manner as described above, and incubated in a selenium-free medium. Cells migrated across the marked reference line were photographed under a phase contrast microscope.
# ATSCs [10] = assay: Osteogenic and adipogenic differentiation in vitro
# Procedure: To estimate the differentiation potential of selenium-treated ATSCs, osteogenic and adipogenic differentiation potential was evaluated.
# In the present embodiment, it was confirmed that the selenium-treated ATSCs accumulated significant amounts of calcium and lipid droplets after only one week of osteogenetic and adipogenetic induction in vitro (FIG. 17). Differences in formation of bone nodules and lipid droplets between the control and selenium-treated ATSCs were estimated by calculating the number of stained bone nodules and lipid droplets in 25 randomly selected fields (regions).
# ATSCs [11] = assay: Neural differentiation in vitro
# From the text: In an attempt to estimate differentiation potential of selenium-treated ATSCs into neural cells in vitro, low levels of Nestin protein expression were detected in the selenium-treated ATSCs after the induction of differentiation (FIG. 19). After neural differentiation, the selenium-treated ATSCs expressed higher levels of Tuj, GFAP, MAP2ab and NF160 than the control ATSCs (FIG. 19). […] It means that there is a difference in differential potential between the control ATSCs and the selenium-treated ATSCs.
# ATSCs [12] = assay: Differentiation into insulin-producing cells; conditions: after beta-cell-like differentiation, vs differentiated control ATSCs
# Procedure: Moreover, for differentiation of cells similar to beta cells, cells were cultured in “N2 media-NA” containing DMEM/F12 (Gibco-Invitrogen) supplemented with 10 mM nicotinamide, ITS (1:50), B27 (1:50; Invitrogen) and 15% FBS. After 24-hour culture, the medium was changed with a high glucose (3500 mg/L)-containing differentiation medium for 2 weeks. After the induction of differentiation, double immunocytochemistry was conducted using insulin (1:800; Sigma) and c-peptide (1:100; Milipore) antibodies.
compound,measurement,setting,value
"O=[Se]([O-])[O-].[Na+].[Na+] [selenium, sodium selenite]",cell proliferation increase by CFU levels,ATSCs [1],at least 1.8 times
same,increase in telomerase activity,ATSCs [2],2 fold
same,passages of continuous growth,ATSCs [3],> 21 passages
same,duration of continuous growth,ATSCs [3]; control ATSCs senescent after 21 to 23 passages,more than 3 months
same,acetylation of Histones 3 and 4,ATSCs [4],attenuated
same,"expression of GFAP, Tuj, p53 and p21",ATSCs [4],downregulation
same,expression of Nestin and c-Myc,ATSCs [4],induced expression
same,Rex1 expression,ATSCs [4]; vs control ATSCs,significantly increased
same,"expression of stemness and functional genes (Rex1, Nanog, Oct4, Sox2, Runx3, CDK1, CDK2, Nestin, VEGF, FGFR1)",ATSCs [4]; vs control ATSCs,overexpression
same,"activation of PI3K and downstream mediators (p-Rac, p-c-Raf, p-MEK, p-ERK, p-Stat3, p-Akt)","ATSCs [5]; 0, 3, 6 and 12 hours",significant activation
same,concentration of apoptosis-related protein p-SAPK/JNK,ATSCs [5],reduced
same,increased fluorescence intensity of DCF (ROS generation),ATSCs [6],compensated
same,upregulation of cell proliferation-associated genes,ATSCs [7],42%
same,Nanog promoter methylation,[8]; third region (-86 to +66) to the TSS,effectively demethylated
same,Oct4 promoter CpG methylation,"[8]; third region, control ATSCs 65.7%",30.3%
same,Rex1 region CpG methylation,"[8]; third region, control ATSCs 72.2%",42.2%
same,migration of ATSCs across the reference line,"ATSCs [9]; 5 ng/ml selenium, 24 hours, vs control ATSCs",three times higher
same,"expression of migration-associated factors MMP1, MMP3, SDF1, VEGF and CXCR4",ATSCs [9]; after selenium treatment,increases in expression
same,lipid droplets vs control ATSCs,"ATSCs [10]; adipogenic induction, eluted dye quantitative assay",six-fold more
same,"level of osteonectin, RXR and osteopontin mRNA",ATSCs [10]; during osteogenesis,significant increases
same,levels of AP and PPAR-γ mRNAs,ATSCs [10]; in adipogenesis,significant increases
same,bone nodules vs control ATSCs,"ATSCs [10]; osteogenic induction, eluted dye quantitative assay",Five-fold more
same,acetyl-histones 3 and 4 (Western blot),ATSCs [11]; after neural differentiation,overexpressed
same,"expression of Tuj, GFAP, MAP2ab and NF160","ATSCs [11]; after neural differentiation, vs control ATSCs",higher levels
same,neural differentiation (MAP2ab/total cells),ATSCs [11]; control ATSCs 2.4%,9.0 % of total cells
same,insulin secretion with C-peptide,ATSCs [12],secreted a significant amount of insulin
